Results reported in article PMC10298982, “Stability Characterization of the Novel Anti-Cancer HM-10/10 HDL-Mimetic Peptide” (International Journal of Molecular Sciences, 2023).

Columns and labels:
[1] = system: cynomolgus monkey plasma proteins; settings: 2.5 h, 2 µM, pH 7.4
[2] = in vitro; settings: cynomolgus monkey, plasma, pH 7.4
[3] = in vitro; settings: CD-1, mouse, plasma
[4] = in vitro; settings: Sprague-Dawley, rat, plasma, pH 7.4
[5] = system: Sprague-Dawley rat plasma proteins; settings: 2.5 h, 2 µM, pH 7.4
[6] = in vitro; settings: beagle, dog, plasma, pH 7.4
[7] = system: beagle dog plasma proteins; settings: 2.5 h, 2 µM, pH 7.4

With `CC(=O)CC(c1ccccc1)c1c(O)c2ccccc2oc1=O` (stereo not shown) [Warfarin] the “% Protein Free Mean ± SD” value [1] was 0.9 ± 0.1%, the fraction unbound at 2.5 h, 2 µM [2] was 0.0086 ± 0.00116 and the remaining at 2.5 h, 2 µM ([3]; pH 7.4) was 108%. For the same compound, the fraction unbound at 2.5 h, 2 µM ([3]; pH 7.4, % Protein Free Mean ± SD) was 0.04 ± 0.002, the fraction unbound at 2.5 h, 2 µM ([3]; pH 7.4, Fu (Unbound Fraction) Mean ± SD) was 0.0398 ± 0.0016 and the remaining at 2.5 h, 2 µM [4] was 105%. For the same compound, the “% Protein Free Mean ± SD” value [5] was 0.7 ± 0.1%, the fraction unbound at 2.5 h, 2 µM [6] was 0.0305 ± 0.0036 and the remaining at 2.5 h, 2 µM [6] was 105%. The “% Protein Free Mean ± SD” value [7] was 3.1 ± 0.4%.
